Results: patent US6395896B2, “Pyridazine derivatives, manufacturing method and related composition” (Shiseido Co., Ltd., priority 1999, dated 2002)

Legend:
[1] = Perfume stabilization effect (photostabilizer, sunlight exposure, judgement by perfumier); set-up: key to Sunlight exposure (80 MJ) Smell evaluation / Sunlight exposure (80 MJ) evaluation: A: No change; B: No almost change; C: Yes change
Protocol: Next, the photostabilization effect for each perfume was studied by the following evaluation formulation.
Each test sample was prepared. Change of smell of sample exposed to sunlight (80 MJ) was observed (judgement by perfumier).

[2] = Drug stabilization effect (photostabilizer, sunlight exposure); set-up: key to Sunlight exposure (80 MJ) Appearance: A: No change; B: No almost change; C: Yes change; settings: photostabilizer 0.05, amounts wt %
Protocol: Next, the photo stabilization effect and changes in appearance in drug compositions were studied according to the following evaluation formulation.
Each test sample was prepared. Appearance changes of the samples exposed to sunlight (80 MJ) was observed (visual evaluation). Also, residual yield was measured by liquid chromatography.

[3] = Colorant stabilization effect (photostabilizer, sunlight exposure); set-up: key to Sunlight exposure (80 MJ) Appearance: A: No change; B: No almost change; C: Yes change; key to Sunlight exposure (80 MJ) ΔE: ΔE color difference (Lab) vs. color before sunlight exposure; settings: photostabilizer 0.05 wt %
Protocol: First of all, the photostabilization effect and appearance change of a composition in each pigment were studied by the following evaluation formulation.
Each test sample was prepared. Observation of appearance change (visual evaluation) and measurement of color difference (ΔE) were carried out in samples exposed to sunlight exposure (around 80 MJ).
Color difference was measured by Lab coordinate system with spectrophotometer. Color difference was calculated on the basis of the color before sunlight exposure. Namely, from measured value (L1,a1,b1) before sunlight exposure, color difference (ΔE) was calculated by following formula.

[4] = Perfume stabilization effect (sequestering agent combination); set-up: key to Sunlight exposure (80 MJ) Smell evaluation: A: No change; B: No almost change; C: Yes change
Protocol: Next, for combinations with sequestering agent, photostabilization effect for each perfume was studied by the following evaluation formulation.
Each test sample was prepared. Smell change of samples exposed to sunlight (80 MJ) was observed (judgement by perfumier).

[5] = Pigment stabilization effect (sequestering agent combination); set-up: key to Sunlight exposure (80 MJ) Appearance: A: No change; B: No almost change; C: Yes change; key to Sunlight exposure (80 MJ) ΔE: color difference ΔE in Lab space vs. color before sunlight exposure; settings: photostabilizer 0, amounts wt %
Protocol: First of all, the photostabilization effect and appearance changes of a composition for each pigment were studied by the following evaluation formulation.
Each test sample was prepared. Observation of appearance changes (visual evaluation) and measurement of color difference (ΔE) were carried out for samples exposed to sunlight (around 80 MJ).
Color difference was measured by Lab coordinate system with spectrophotometer. Color difference was calculated based on the color before sunlight exposure. Namely, from the measured value (L1,a1,b1) before sunlight exposure, color difference (ΔE) was calculated by following formula.

[6] = Base perfume Fruity 0.03 wt %, photostabilizer 0.1 wt %
[7] = Base perfume Muguet 0.03 wt %, photostabilizer 0.05 wt %
[8] = Base perfume Rose 0.03 wt %, photostabilizer 0.05 wt %
[9] = Base perfume Spicy 0.03 wt %, photostabilizer 0.2 wt %
[10] = Base perfume Woody 0.03 wt %, photostabilizer 0.1 wt %
[11] = Natural perfume Jasmine oil 0.03 wt %, photostabilizer 0.05 wt %
[12] = Natural perfume Lavender oil 0.03 wt %, photostabilizer 0.1 wt %
[13] = Natural perfume Neroli oil 0.03 wt %, photostabilizer 0.1 wt %
[14] = Natural perfume Rose oil 0.03 wt %, photostabilizer 0.05 wt %
[15] = Natural perfume Ylang ylang oil 0.03 wt %, photostabilizer 0.2 wt %
[16] = Synthetic perfume Citral 0.03 wt %, photostabilizer 0.1 wt %
[17] = Synthetic perfume Limonene 0.03 wt %, photostabilizer 0.05 wt %
[18] = Synthetic perfume Linalool 0.03 wt %, photostabilizer 0.05 wt %
[19] = Synthetic perfume Linalyl acetate 0.03 wt %, photostabilizer 0.1 wt %
[20] = Synthetic perfume Rose oxide 0.03 wt %, photostabilizer 0.2 wt %
[21] = drug 2-o-α-α-glucopyranosyl-L-ascorbic acid 2.0
[22] = drug Dibutylhydroxytoluene 0.01
[23] = drug Dipotassium glycyrrhizinate 0.05
[24] = drug L-ascorbic acid 2-(dl-α-tocopheryl hydrogen phosphate) potassium salt 0.01
[25] = Red No. 106 0.00001 wt % + Yellow No. 5 0.0001 wt %
[26] = Red No. 106 0.00001 wt % + Yellow No. 203 0.0001 wt %
[27] = Red No. 213 0.00001 wt % + Blue No. 1 0.00001 wt %
[28] = Red No. 227 0.0001 wt % + Yellow No. 5 0.0001 wt %
[29] = Red No. 227 0.0001 wt % + Yellow No. 203 0.0001 wt %
[30] = Red No. 401 0.0001 wt % + Blue No. 1 0.00001 wt %
[31] = Red No. 401 0.0001 wt % + Green No. 3 0.00001 wt %
[32] = Yellow No. 203 0.0001 wt % + Yellow No. 5 0.0001 wt %
[33] = colorant Green No. 3 0.0001, sequestering agent 0.03 alone
[34] = colorant Red No. 106 0.0001, sequestering agent 0.02 alone
[35] = colorant Red No. 401 0.001, sequestering agent 0.1 alone
[36] = colorant Yellow No. 5 0.001, sequestering agent 0.02 alone

## COc1ccc(C(=O)c2ccccc2)c(O)c1 [2-Hydroxy-4-methoxybenzophenone, reference compound]
[1]; [6]
  Sunlight exposure (80 MJ) Smell evaluation: B
[1]; [7]
  Sunlight exposure (80 MJ) Smell evaluation: B
[1]; [8]
  Sunlight exposure (80 MJ) Smell evaluation: B
[1]; [9]
  Sunlight exposure (80 MJ) Smell evaluation: B
[1]; [10]
  Sunlight exposure (80 MJ) Smell evaluation: B
[1]; [11]
  Sunlight exposure (80 MJ) Smell evaluation: B
[1]; [12]
  Sunlight exposure (80 MJ) Smell evaluation: B
[1]; [13]
  Sunlight exposure (80 MJ) Smell evaluation: B
[1]; [14]
  Sunlight exposure (80 MJ) Smell evaluation: B
[1]; [15]
  Sunlight exposure (80 MJ) Smell evaluation: B
[1]; [16]
  Sunlight exposure (80 MJ) Smell evaluation: B
[1]; [17]
  Sunlight exposure (80 MJ) Smell evaluation: B
[1]; [18]
  Sunlight exposure (80 MJ) Smell evaluation: B
[1]; [19]
  Sunlight exposure (80 MJ) Smell evaluation: B
[1]; [20]
  Sunlight exposure (80 MJ) Smell evaluation: B
[2]; [21]
  Sunlight exposure (80 MJ) Appearance: B
  Sunlight exposure (80 MJ) Residual yield [%]: 97.3%
[2]; [22]
  Sunlight exposure (80 MJ) Appearance: B
  Sunlight exposure (80 MJ) Residual yield [%]: 95.2%
[2]; [23]
  Sunlight exposure (80 MJ) Appearance: B
  Sunlight exposure (80 MJ) Residual yield [%]: 97.8%
[2]; [24]
  Sunlight exposure (80 MJ) Appearance: B
  Sunlight exposure (80 MJ) Residual yield [%]: 95.4%
[2]; drug Salicylic acid 0.1
  Sunlight exposure (80 MJ) Appearance: B
  Sunlight exposure (80 MJ) Residual yield [%]: 98.2%
[3]; Blue No. 1 0.0001 wt %
  Sunlight exposure (80 MJ) Appearance: B
  Sunlight exposure (80 MJ) ΔE: 1.76
[3]; Green No. 3 0.0001 wt %
  Sunlight exposure (80 MJ) Appearance: B
  Sunlight exposure (80 MJ) ΔE: 0.75
[3]; [25]
  Sunlight exposure (80 MJ) Appearance: B
  Sunlight exposure (80 MJ) ΔE: 1.18
[3]; [26]
  Sunlight exposure (80 MJ) Appearance: B
  Sunlight exposure (80 MJ) ΔE: 1.11
[3]; Red No. 106 0.0001 wt %
  Sunlight exposure (80 MJ) Appearance: B
  Sunlight exposure (80 MJ) ΔE: 1.01
[3]; [27]
  Sunlight exposure (80 MJ) Appearance: B
  Sunlight exposure (80 MJ) ΔE: 1.26
[3]; Red No. 213 0.0001 wt %
  Sunlight exposure (80 MJ) Appearance: B
  Sunlight exposure (80 MJ) ΔE: 1.34
[3]; [28]
  Sunlight exposure (80 MJ) Appearance: B
  Sunlight exposure (80 MJ) ΔE: 0.88
[3]; [29]
  Sunlight exposure (80 MJ) Appearance: B
  Sunlight exposure (80 MJ) ΔE: 1.05
[3]; Red No. 227 0.0001 wt %
  Sunlight exposure (80 MJ) Appearance: B
  Sunlight exposure (80 MJ) ΔE: 0.71
[3]; [30]
  Sunlight exposure (80 MJ) Appearance: B
  Sunlight exposure (80 MJ) ΔE: 0.82
[3]; [31]
  Sunlight exposure (80 MJ) Appearance: B
  Sunlight exposure (80 MJ) ΔE: 1.06
[3]; Red No. 401 0.001 wt %
  Sunlight exposure (80 MJ) Appearance: B
  Sunlight exposure (80 MJ) ΔE: 1.18
[3]; Yellow No. 5 0.001 wt %
  Sunlight exposure (80 MJ) Appearance: B
  Sunlight exposure (80 MJ) ΔE: 0.82
[3]; [32]
  Sunlight exposure (80 MJ) Appearance: A
  Sunlight exposure (80 MJ) ΔE: 0.52
[3]; Yellow No. 203 0.001 wt %
  Sunlight exposure (80 MJ) Appearance: B
  Sunlight exposure (80 MJ) ΔE: 0.88

## COc1cc(O)c(C(=O)c2ccccc2)cc1S(=O)(=O)[O-].[Na+] [2-Hydroxy-4-methoxybenzophenone-5-sodium sulfonate, reference compound]
[1]; [6]
  Sunlight exposure (80 MJ) Smell evaluation: B
[1]; [7]
  Sunlight exposure (80 MJ) Smell evaluation: B
[1]; [8]
  Sunlight exposure (80 MJ) Smell evaluation: B
[1]; [9]
  Sunlight exposure (80 MJ) Smell evaluation: B
[1]; [10]
  Sunlight exposure (80 MJ) Smell evaluation: B
[1]; [11]
  Sunlight exposure (80 MJ) Smell evaluation: B
[1]; [12]
  Sunlight exposure (80 MJ) Smell evaluation: B
[1]; [13]
  Sunlight exposure (80 MJ) Smell evaluation: B
[1]; [14]
  Sunlight exposure (80 MJ) Smell evaluation: B
[1]; [15]
  Sunlight exposure (80 MJ) Smell evaluation: B
[1]; [16]
  Sunlight exposure (80 MJ) Smell evaluation: B
[1]; [17]
  Sunlight exposure (80 MJ) Smell evaluation: B
[1]; [18]
  Sunlight exposure (80 MJ) Smell evaluation: B
[1]; [19]
  Sunlight exposure (80 MJ) Smell evaluation: B
[1]; [20]
  Sunlight exposure (80 MJ) Smell evaluation: B
[2]; [21]
  Sunlight exposure (80 MJ) Appearance: B
  Sunlight exposure (80 MJ) Residual yield [%]: 97.8%
[2]; [22]
  Sunlight exposure (80 MJ) Appearance: B
  Sunlight exposure (80 MJ) Residual yield [%]: 94.8%
[2]; [23]
  Sunlight exposure (80 MJ) Appearance: B
  Sunlight exposure (80 MJ) Residual yield [%]: 97.5%
[2]; [24]
  Sunlight exposure (80 MJ) Appearance: B
  Sunlight exposure (80 MJ) Residual yield [%]: 95.0%
[2]; drug Salicylic acid 0.1
  Sunlight exposure (80 MJ) Appearance: B
  Sunlight exposure (80 MJ) Residual yield [%]: 98.0%
[3]; Blue No. 1 0.0001 wt %
  Sunlight exposure (80 MJ) Appearance: B
  Sunlight exposure (80 MJ) ΔE: 1.67
[3]; Green No. 3 0.0001 wt %
  Sunlight exposure (80 MJ) Appearance: B
  Sunlight exposure (80 MJ) ΔE: 0.74
[3]; Red No. 106 0.0001 wt %
  Sunlight exposure (80 MJ) Appearance: B
  Sunlight exposure (80 MJ) ΔE: 0.98
[3]; Red No. 213 0.0001 wt %
  Sunlight exposure (80 MJ) Appearance: B
  Sunlight exposure (80 MJ) ΔE: 1.28
[3]; Red No. 227 0.0001 wt %
  Sunlight exposure (80 MJ) Appearance: B
  Sunlight exposure (80 MJ) ΔE: 0.80
[3]; Red No. 401 0.001 wt %
  Sunlight exposure (80 MJ) Appearance: B
  Sunlight exposure (80 MJ) ΔE: 1.39
[3]; Yellow No. 5 0.001 wt %
  Sunlight exposure (80 MJ) Appearance: B
  Sunlight exposure (80 MJ) ΔE: 0.78
[3]; Yellow No. 203 0.001 wt %
  Sunlight exposure (80 MJ) Appearance: B
  Sunlight exposure (80 MJ) ΔE: 0.76

## O=C([O-])CNCCN(CC(=O)[O-])CC(=O)[O-].[Na+].[Na+].[Na+] [Trisodium ethylenediamine triacetate]
[4]
  Sunlight exposure (80 MJ) Smell evaluation: C

## Sodium polyphosphate
[5]; [33]
  Sunlight exposure (80 MJ) Appearance: C
  Sunlight exposure (80 MJ) ΔE: 2.1
[5]; [34]
  Sunlight exposure (80 MJ) Appearance: C
  Sunlight exposure (80 MJ) ΔE: 2.92
[5]; [35]
  Sunlight exposure (80 MJ) Appearance: C
  Sunlight exposure (80 MJ) ΔE: 7.14
[5]; [36]
  Sunlight exposure (80 MJ) Appearance: C
  Sunlight exposure (80 MJ) ΔE: 1.75
